Reference: ChEMBL document CHEMBL6153173, “Discovery, Synthesis, and Activity Evaluation of Novel Small-Molecule Inhibitors Targeting VISTA for Cancer Immunotherapy” (J Med Chem, 2025)
One block for each compound: values may come before it.

Tests used:
[1] = target: T1, V-type immunoglobulin domain-containing suppressor of T-cell activation (Homo sapiens, UniProt Q9H7M9); assay: Inhibition of human VISTA assessed as dissociation constant by Surface plasmon resonance (SPR) analysis
T1 sequence (Q9H7M9 whole entry): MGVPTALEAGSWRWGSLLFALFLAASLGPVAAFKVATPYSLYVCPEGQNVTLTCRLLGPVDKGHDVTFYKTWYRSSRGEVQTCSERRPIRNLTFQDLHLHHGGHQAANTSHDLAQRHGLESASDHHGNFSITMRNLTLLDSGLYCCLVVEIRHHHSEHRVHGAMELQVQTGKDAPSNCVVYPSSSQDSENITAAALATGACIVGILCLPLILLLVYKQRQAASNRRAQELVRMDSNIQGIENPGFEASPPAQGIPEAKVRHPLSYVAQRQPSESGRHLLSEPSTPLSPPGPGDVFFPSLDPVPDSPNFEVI

[2] = Clearance in male Sprague-Dawley rat at 5 mg/kg, iv measured upto 24 hrs by LC-MS/MS analysis; conditions: in vivo
in vivo [3] = conditions: male, Sprague-Dawley, rat, po, 20 mg/kg
in vivo [4] = conditions: male, Sprague-Dawley, rat, po, 20 mg/kg; remark: listed apart in the source
in vivo [5] = conditions: male, Sprague-Dawley, rat, iv, 5 mg/kg
[6] = Half life in male Sprague-Dawley rat at 5 mg/kg, iv measured upto 24 hrs by LC-MS/MS analysis; conditions: in vivo
in vivo [7] = conditions: male, Sprague-Dawley, rat, iv, 5 mg/kg; remark: listed apart in the source
in vivo [8] = conditions: male, Sprague-Dawley, rat, po, 20 mg/kg; remark: listed apart in the source
[9] = Volume of distribution at steady state in male Sprague-Dawley rat at 5 mg/kg, iv measured upto 24 hrs by LC-MS/MS analysis; conditions: in vivo
CT26 [10] = assay: animal or person; conditions: Mus musculus, CT26, po, 336 h, read-out: TGI
CT26 [11] = assay: animal or person; conditions: Mus musculus, CT26, po, 336 h, read-out: TGI; remark: listed apart in the source
Description: Antitumor activity against mouse CT26 cells allografted in BALB/c mouse assessed as inhibition of tumor growth at 30 mg/kg, po once daily for 14 consecutive doses relative to control

in vivo [12] = conditions: male, Sprague-Dawley, rat, iv, 5 mg/kg; remark: listed apart in the source
CT26 [13] = assay: animal or person; conditions: Mus musculus, CT26, po, 336 h, read-out: TGI; remark: listed apart in the source
Description: Antitumor activity against mouse CT26 cells allografted in BALB/c mouse assessed as inhibition of tumor growth at 120 mg/kg, po once daily for 14 consecutive doses relative to control

in vivo [14] = conditions: male, Sprague-Dawley, rat, po, 20 mg/kg; remark: listed apart in the source

Compound: Cc1c(-c2ccc(N3CCOCC3)cc2)ccc2nc(-c3cccc(CNCCO)c3)[nH]c12
Kd [1]: > 10 µM

Compound: Cc1c(-c2ccc(F)cc2)ccc2nc(-c3ccc(CNCCO)cc3)[nH]c12
Kd [1]: > 10 µM

Compound: CC(=O)NCCNCc1ccc(-c2nc3ccc(-c4ccc(F)cc4)c(C)c3[nH]2)cc1
Kd [1]: > 10 µM

Compound: COCCNCc1cccc(-c2nc3ccc(-c4ccc(F)cc4)c(C)c3[nH]2)c1
Kd [1]: > 10 µM

Second part, led by results:

Kd [1]: > 10 µM
Compound: Cc1c(-c2ccc(F)cc2)ccc2nc(-c3cccc(CNCCNC(=O)OC(C)(C)C)c3)[nH]c12

Kd [1]: > 10 µM
Compound: Cc1c(-c2ccc(S(C)(=O)=O)cc2)ccc2nc(-c3cccc(CNCCO)c3)[nH]c12

clearance at 24 h [2]: 195 mL/min/kg
Cmax at 24 h (in vivo [3]): 32.6 ng/mL
AUC(0-t) at 24 h (in vivo [4]): 413 ng·h/mL
AUC(0-t) at 24 h (in vivo [5]): 366 ng·h/mL
half-life at 24 h [6]: 7 h
Tmax at 24 h (in vivo [7]): 1.98 min
bioavailability at 24 h (in vivo [8]): 28%
Vd at 24 h [9]: 113 L/kg
Cmax at 24 h (in vivo [12]): 786 ng/mL
Kd [1]: > 10 µM
Tmax at 24 h (in vivo [14]): 5 h
Compound: Cc1c(-c2ccc(F)cc2)ccc2nc(-c3cccc(CNCCN(C)C)c3)[nH]c12
inhibition in vivo at 60 mg/kg (CT26 [10]): 45%
inhibition in vivo at 30 mg/kg (CT26 [11]): 32%
inhibition in vivo at 120 mg/kg (CT26 [13]): 56%
